Data: patent publication US10611740B2, “Aryl dihydro-2H-benzo[b][1,4]oxazine sulfonamide and related compounds for use as agonists of RORγ and the treatment of disease” (Lycera Corporation, priority 2015, dated 2020)

How the values were obtained:
[1] = molecular target: T1, Gal4-RORγ-LBD (Homo sapiens, UniProt P51449); experiment: Gal4-RORγ Luciferase Reporter Assay in HEK-293T Cells; type: cell-based; conditions: HEK-293 cells, 2 μM ursolic acid
T1 construct: expressed in transfected cells; host or cells: HEK-293 cells (pcDNA3.1neo plasmid)
T1 sequence (P51449 269-508 limits assumed): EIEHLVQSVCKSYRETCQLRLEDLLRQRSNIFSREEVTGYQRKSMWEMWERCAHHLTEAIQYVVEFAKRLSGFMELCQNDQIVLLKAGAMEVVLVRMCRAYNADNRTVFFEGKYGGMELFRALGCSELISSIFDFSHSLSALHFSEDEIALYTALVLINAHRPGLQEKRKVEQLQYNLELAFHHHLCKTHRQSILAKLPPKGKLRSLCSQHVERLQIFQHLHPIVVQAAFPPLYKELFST
Outline: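 In transfected HEK-293 cells (Gal4-RORγ-LBD, Gal4-luciferase), test agents with 2 μM ursolic acid were incubated overnight at 37 °C before luminescent detection. Values are relative to the ursolic-acid-free, compound-free signal (100).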

[2] = molecular target: T2, RORγ-LBD (Homo sapiens, UniProt P51449); experiment: RORγ-Ligand Binding Domain (LBD) TR-FRET Assay; type: biochemical;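 for TR-FRET Assay Max Response: 665/615 nm ratio relative to signal without ursolic acid or compound set at 100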
T2 construct: made in house; host or cells: SF9 cells (baculovirus)
T2 sequence (P51449 269-508 limits assumed): T1 sequence (P51449 269-508 limits assumed)
Outline: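 SF9 lysate containing His-RORγ-LBD, ~3 nM final; coactivator peptide biotin-SRC1 LXXLL, 200 nM final; ursolic acid 2 μM final; DMSO 1% final; Tris pH 7.0 buffer with KCl, EDTA, DTT, BSA. TR-FRET format.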

Row | Compound | EC50 [1] | Gal4-RORγ Assay Max Response [1] | EC50 [2] | TR-FRET Assay Max Response [2]
1 | O=C(NC[C@H]1CN(S(=O)(=O)c2cccc(C(F)(F)F)c2)c2cc(-c3cccc(F)c3Cl)ccc2O1)C(=O)C1CC1 [Compound 30CA, (S)-N-((6-(2-chloro-3-fluoro-phenyl)-4-((3-(trifluoromethyl)-phenyl)sulfonyl)-3,4-dihydro-2H-benzo[b][1,4]oxazin-2-yl)methyl)-2-cyclopropyl-2-oxoacetamide] | < 500 nM | * (The symbol “*” indicates a value in the range of 25 to 90) | < 500 nM | *** (The symbol “***” indicates a value in the range of greater than 150 to 200)
2 | O=C(NC[C@H]1CN(S(=O)(=O)c2cccc(C(F)(F)F)c2)c2cc(-c3cccc(F)c3Cl)ccc2O1)C1(CO)CC1 [Compound 30CB, (S)-N-((6-(2-chloro-3-fluoro-phenyl)-4-((3-(trifluoromethyl)-phenyl)sulfonyl)-3,4-dihydro-2H-benzo[b][1,4]oxazin-2-yl)methyl)-1-(hydroxymethyl)-cyclopropane-1-carboxamide] | < 500 nM | * (The symbol “*” indicates a value in the range of 25 to 90) | < 500 nM | *** (The symbol “***” indicates a value in the range of greater than 150 to 200)
3 | COc1cc(S(=O)(=O)N2C[C@H](CNC(=O)[C@@](C)(O)C(F)(F)F)Oc3ccc(-c4cccc(C(F)(F)F)n4)cc32)ccc1F [Compound 30CC, (R)-3,3,3-trifluoro-N-(((S)-4-((4-fluoro-3-methoxyphenyl)-sulfonyl)-6-(6-(trifluoromethyl)-pyridin-2-yl)-3,4-dihydro-2H-benzo[b][1,4]oxazin-2-yl)methyl)-2-hydroxy-2-methylpropanamide] | < 500 nM | ** (The symbol “**” indicates a value in the range of greater than 90 to 150) | < 500 nM | *** (The symbol “***” indicates a value in the range of greater than 150 to 200)
4 | Cn1cc(C(=O)NC[C@H]2CN(S(=O)(=O)c3cccc(C(F)(F)F)c3)c3cc(-c4cccc(F)c4Cl)ccc3O2)cn1 [Compound 30CD, (S)-N-((6-(2-chloro-3-fluoro-phenyl)-4-((3-(trifluoromethyl)-phenyl)sulfonyl)-3,4-dihydro-2H-benzo[b][1,4]oxazin-2-yl)methyl)-1-methyl-1H-pyrazole-4-carboxamide] | < 500 nM | ** (The symbol “**” indicates a value in the range of greater than 90 to 150) | < 500 nM | *** (The symbol “***” indicates a value in the range of greater than 150 to 200)
5 | CC(F)(F)C(=O)NC[C@H]1CN(S(=O)(=O)c2cccc(C(F)(F)F)c2)c2cc(-c3cccc(F)c3Cl)ccc2O1 [Compound 30CE, (S)-N-((6-(2-chloro-3-fluoro-phenyl)-4-((3-(trifluoromethyl)-phenyl)sulfonyl)-3,4-dihydro-2H-benzo[b][1,4]oxazin-2-yl)methyl)-2,2-difluoro-propanamide] | < 500 nM | * (The symbol “*” indicates a value in the range of 25 to 90) | < 500 nM | *** (The symbol “***” indicates a value in the range of greater than 150 to 200)
6 | O=C(NC[C@H]1CN(S(=O)(=O)c2cccc(C(F)(F)F)c2)c2cc(-c3cccc(F)c3Cl)ccc2O1)C1CC1 [Compound 30CF, (S)-N-((6-(2-chloro-3-fluoro-phenyl)-4-((3-(trifluoromethyl)-phenyl)sulfonyl)-3,4-dihydro-2H-benzo[b][1,4]oxazin-2-yl)methyl)cyclopropanecarbox-amide] | < 500 nM | ** (The symbol “**” indicates a value in the range of greater than 90 to 150) | < 500 nM | **** (The symbol “****” indicates a value greater than 200)
7 | CC(C)(O)CC(=O)NC[C@H]1CN(S(=O)(=O)c2cccc(C(F)(F)F)c2)c2cc(-c3cccc(F)c3Cl)ccc2O1 [Compound 30CG, (S)-N-((6-(2-chloro-3-fluoro-phenyl)-4-((3-(trifluoromethyl)-phenyl)sulfonyl)-3,4-dihydro-2H-benzo[b][1,4]oxazin-2-yl)methyl)-3-hydroxy-3-methylbutanamide] | 500 to 5000 nM | * (The symbol “*” indicates a value in the range of 25 to 90) | < 500 nM | *** (The symbol “***” indicates a value in the range of greater than 150 to 200)
8 | COCCC(=O)NC[C@H]1CN(S(=O)(=O)c2cccc(C(F)(F)F)c2)c2cc(-c3cccc(F)c3Cl)ccc2O1 [Compound 30CH, (S)-N-((6-(2-chloro-3-fluoro-phenyl)-4-((3-(trifluoromethyl)-phenyl)sulfonyl)-3,4-dihydro-2H-benzo[b][1,4]oxazin-2-yl)methyl)-3-methoxy-propanamide] | 500 to 5000 nM | * (The symbol “*” indicates a value in the range of 25 to 90) | < 500 nM | *** (The symbol “***” indicates a value in the range of greater than 150 to 200)
9 | CO[C@@H](C)C(=O)NC[C@H]1CN(S(=O)(=O)c2cccc(C(F)(F)F)c2)c2cc(-c3cccc(F)c3Cl)ccc2O1 [Compound 30CI, (S)-N-(((S)-6-(2-chloro-3-fluorophenyl)-4-((3-(trifluoro-methyl)phenyl)sulfonyl)-3,4-dihydro-2H-benzo[b][1,4]-oxazin-2-yl)methyl)-2-methoxypropanamide] | 500 to 5000 nM | * (The symbol “*” indicates a value in the range of 25 to 90) | < 500 nM | *** (The symbol “***” indicates a value in the range of greater than 150 to 200)
10 | CC(=O)N[C@H](C)C(=O)NC[C@H]1CN(S(=O)(=O)c2cccc(C(F)(F)F)c2)c2cc(-c3cccc(F)c3Cl)ccc2O1 [Compound 30CJ, (R)-2-acetamido-N-(((S)-6-(2-chloro-3-fluorophenyl)-4-((3-(trifluoromethyl)phenyl)-sulfonyl)-3,4-dihydro-2H-benzo[b][1,4]oxazin-2-yl)methyl)propanamide] | 500 to 5000 nM | * (The symbol “*” indicates a value in the range of 25 to 90) | < 500 nM | ** (The symbol “**” indicates a value in the range of greater than 90 to 150)
11 | CC(F)C(=O)NC[C@H]1CN(S(=O)(=O)c2cccc(C(F)(F)F)c2)c2cc(-c3cccc(F)c3Cl)ccc2O1 (stereo partly drawn) [Compound 30CK, N-(((S)-6-(2-chloro-3-fluoro-phenyl)-4-((3-(trifluoromethyl)-phenyl)sulfonyl)-3,4-dihydro-2H-benzo[b][1,4]oxazin-2-yl)methyl)-2-fluoropropanamide] | 500 to 5000 nM | * (The symbol “*” indicates a value in the range of 25 to 90) | < 500 nM | ** (The symbol “**” indicates a value in the range of greater than 90 to 150)
12 | CC(C)(C(=O)NC[C@H]1CN(S(=O)(=O)c2cccc(C(F)(F)F)c2)c2cc(-c3cc(F)cc(F)c3Cl)ccc2O1)C(F)(F)F [Compound 30CL, (S)-N-((6-(2-chloro-3,5-difluoro-phenyl)-4-((3-(trifluoromethyl)-phenyl)sulfonyl)-3,4-dihydro-2H-benzo[b][1,4]oxazin-2-yl)methyl)-3,3,3-trifluoro-2,2-dimethylpropanamide] | 500 to 5000 nM | * (The symbol “*” indicates a value in the range of 25 to 90) | 500 to 5000 nM | ** (The symbol “**” indicates a value in the range of greater than 90 to 150)
